Measurements taken from ChEMBL document CHEMBL4483862, “Open-source discovery of chemical leads for next-generation chemoprotective antimalarials” (2018).

System: Plasmodium berghei
Assay: Luciferase/luciferin-expressing antifolate-resistant parasites were used to infect a culture of HepG2 cells that were pre-incubated with compounds. Infected hepatocytes emit light due to the luciferase reaction. Assay results are presented as the percent inhibition of light emission compared to control. […]
Format: functional
Settings: sporozoite; for IC90: read-out: LUCIFERASE INFECTION ASSAY - IC90

Structure (SMILES)	IC90	also measured
COc1ccccc1C(CNC(=O)c1ccc(-c2ccccc2Cl)o1)N1CCCC1 (stereo not given)	9.73 µM	IC50 (PBLUC_HILL_SLOPE 3.28, PBLUC_R_SQUARED 0.202, read-out: LUCIFERASE INFECTION ASSAY - IC50): 4.98 µM
Cc1cc(C2N=C(N)Nc3nc4ccccc4n32)c(C)n1-c1ccccc1Cl (stereo not given)	7.59 µM	IC50 (PBLUC_HILL_SLOPE 3.33, 1.30, PBLUC_R_SQUARED 0.920, 0.833, read-out: LUCIFERASE INFECTION ASSAY - IC50): 3.92 µM
NC(Cc1ccc(C(F)(F)F)cc1)c1csc(Nc2cc(Oc3ccccc3)ncn2)n1 (stereo not given)	> 7.21 µM	IC50 (PBLUC_HILL_SLOPE 3.27, PBLUC_R_SQUARED 0.275, read-out: LUCIFERASE INFECTION ASSAY - IC50): 4.26 µM
CNC(=S)Nc1cc(C(F)(F)F)cc(C(F)(F)F)c1	8.33 µM	IC50 (PBLUC_HILL_SLOPE 3.27, PBLUC_R_SQUARED 0.572, read-out: LUCIFERASE INFECTION ASSAY - IC50): 4.26 µM
CCN(CC)S(=O)(=O)c1ccc(C(C)NC(=O)c2nn(CC)c(=O)c3ccccc23)cc1 (stereo not given)	4.01 µM	IC50 (PBLUC_HILL_SLOPE 3.22, PBLUC_R_SQUARED 0.606, read-out: LUCIFERASE INFECTION ASSAY - IC50): 2.02 µM
CSc1[nH]c(=O)c(C(=O)NCCc2c(C)cc(C(C)(C)C)cc2C)cc1C#N	7.29 µM	IC50 (PBLUC_HILL_SLOPE 3.23, PBLUC_R_SQUARED 0.351, read-out: LUCIFERASE INFECTION ASSAY - IC50): 3.69 µM
COCCCN1C(=O)N(Cc2ccccc2)C(=O)C12CCN(Cc1cccc(-c3ccco3)c1)CC2	> 6.77 µM	IC50 (PBLUC_HILL_SLOPE 3.26, PBLUC_R_SQUARED 0.648, read-out: LUCIFERASE INFECTION ASSAY - IC50): 4.58 µM
Cc1cc(OCCCC(=O)NC2CCN(Cc3ccccc3)CC2)ccc1Cl	> 10 µM	IC50 (PBLUC_HILL_SLOPE 3.22, PBLUC_R_SQUARED 0.455, read-out: LUCIFERASE INFECTION ASSAY - IC50): 5.35 µM
CN(C)c1cccc(-c2cnc3cnc(-c4cccnc4)cn23)c1	> 10.5 µM	IC50 (PBLUC_HILL_SLOPE 3.32, PBLUC_R_SQUARED 0.395, read-out: LUCIFERASE INFECTION ASSAY - IC50): 8.6 µM
Cc1ccc(S(=O)(=O)Nc2ccc(Nc3nccn4c(-c5ccccc5N(C)C)cnc34)cc2)cc1	> 6.62 µM	IC50 (PBLUC_HILL_SLOPE 3.26, PBLUC_R_SQUARED 0.262, read-out: LUCIFERASE INFECTION ASSAY - IC50): 3.47 µM
CCc1ccc(-c2nc(C(=O)Nn3cn[nH]c3=S)cs2)cc1	> 10 µM	IC50 (PBLUC_HILL_SLOPE 3.31, PBLUC_R_SQUARED 0.251, read-out: LUCIFERASE INFECTION ASSAY - IC50): 5.44 µM
Cc1cc2oc(=O)cc(CN(Cc3ccc(C(=O)NC4CC4)cc3)Cc3ccco3)c2cc1C	1.83 µM	IC50 (PBLUC_HILL_SLOPE 3.23, PBLUC_R_SQUARED 0.675, read-out: LUCIFERASE INFECTION ASSAY - IC50): 0.928 µM
Cc1onc(-c2ccccc2Cl)c1NC(=O)Nc1cc(C(F)(F)F)cc(C(F)(F)F)c1	6.51 µM	IC50 (PBLUC_HILL_SLOPE 3.23, PBLUC_R_SQUARED 0.494, read-out: LUCIFERASE INFECTION ASSAY - IC50): 3.3 µM
CN1CCN(c2ccc(NC(=O)c3c[nH]c4ccc(Br)cc34)cn2)CC1	> 10 µM	IC50 (PBLUC_HILL_SLOPE 3.31, PBLUC_R_SQUARED 0.596, read-out: LUCIFERASE INFECTION ASSAY - IC50): 8.19 µM
Cc1nn(-c2ccccc2Cl)c(Cl)c1/C=N/Nc1ccccc1Cl	7.32 µM	IC50 (PBLUC_HILL_SLOPE 3.24, PBLUC_R_SQUARED 0.794, read-out: LUCIFERASE INFECTION ASSAY - IC50): 3.72 µM
O=C(/C=C/c1cccs1)N1CCN(S(=O)(=O)c2c(Cl)cc(Br)cc2Cl)CC1	> 10 µM	IC50 (PBLUC_HILL_SLOPE 3.28, PBLUC_R_SQUARED 0.115, read-out: LUCIFERASE INFECTION ASSAY - IC50): 5.38 µM
COc1cccc(/C=C/C(=O)Oc2c(Cl)cc(Cl)c3ccc(C)nc23)c1OC	9.03 µM	IC50 (PBLUC_HILL_SLOPE 3.32, PBLUC_R_SQUARED 0.808, read-out: LUCIFERASE INFECTION ASSAY - IC50): 4.66 µM
COc1cc(-c2cnc3cnc(-c4ccc(CNc5ccccc5)cc4)cn23)cc(OC)c1OC	5.78 µM	IC50 (PBLUC_HILL_SLOPE 3.28, PBLUC_R_SQUARED 0.672, read-out: LUCIFERASE INFECTION ASSAY - IC50): 2.96 µM
Fc1ccc(COc2ccc(Cl)cc2CNCc2ccccn2)cc1	> 9.25 µM	IC50 (PBLUC_HILL_SLOPE 3.23, PBLUC_R_SQUARED 0.405, read-out: LUCIFERASE INFECTION ASSAY - IC50): 6.55 µM
C=CCn1c(C)cc(C(=O)CSc2nc3ccccc3s2)c1C	0.221 µM	IC50 (PBLUC_HILL_SLOPE 3.3, PBLUC_R_SQUARED 0.342, read-out: LUCIFERASE INFECTION ASSAY - IC50): 0.113 µM

Structure (SMILES)	IC90	also measured
O=C(Nc1ccccc1)c1ccc(C2(CNCc3cccnc3)CC2)cc1	0.637 µM	IC50 (PBLUC_HILL_SLOPE 3.24, PBLUC_R_SQUARED 0.623, read-out: LUCIFERASE INFECTION ASSAY - IC50): 0.323 µM
CNc1ncnc(NNC(=O)Nc2ccc(Cl)cc2)c1[N+](=O)[O-]	> 9.77 µM	IC50 (PBLUC_HILL_SLOPE 3.27, PBLUC_R_SQUARED 0.316, read-out: LUCIFERASE INFECTION ASSAY - IC50): 5.92 µM
CCCCCCCCc1nnc(NC(=O)c2cnc(C)cn2)s1	9.2 µM	IC50 (PBLUC_HILL_SLOPE 3.30, 10.9, PBLUC_R_SQUARED 0.837, 0.639, read-out: LUCIFERASE INFECTION ASSAY - IC50): 6.57 µM
COC(=O)c1c(NC(=O)C2CCOC2)c2cc(NCC(C)(C)C)cnc2n1CCc1c[nH]c2ccccc12 (stereo not given)	> 6.38 µM	IC50 (PBLUC_HILL_SLOPE 3.23, PBLUC_R_SQUARED 0.492, read-out: LUCIFERASE INFECTION ASSAY - IC50): 4.09 µM
CC(C)(C)c1cc2nc(C(F)(F)F)cc(NNC(=O)Nc3ccccc3)n2n1	> 8.41 µM	IC50 (PBLUC_HILL_SLOPE 3.27, PBLUC_R_SQUARED 0.167, read-out: LUCIFERASE INFECTION ASSAY - IC50): 5.36 µM
COc1ccc(Cn2nc(C(=O)NC3CCCC3)c3c2CCN(Cc2ccc4c(c2)CCO4)C3)cc1	> 6.78 µM	IC50 (PBLUC_HILL_SLOPE 3.3, PBLUC_R_SQUARED 0.745, read-out: LUCIFERASE INFECTION ASSAY - IC50): 3.79 µM
COC(=O)c1c(C)[nH]c(-c2nc(Nc3cccc(OC)c3)sc2C)c1C	> 10 µM	IC50 (PBLUC_HILL_SLOPE 3.29, PBLUC_R_SQUARED 0.0567, read-out: LUCIFERASE INFECTION ASSAY - IC50): 7.6 µM
CC(C)(C)c1ccc(C(=O)NC(=S)NNC(=O)c2cccc([N+](=O)[O-])c2)cc1	3.57 µM	IC50 (PBLUC_HILL_SLOPE 3.29, PBLUC_R_SQUARED 0.591, read-out: LUCIFERASE INFECTION ASSAY - IC50): 1.83 µM
COc1ccc(-c2cnc3sc(NCCCO)nn23)cc1OC	7.9 µM	IC50 (PBLUC_HILL_SLOPE 3.23, PBLUC_R_SQUARED 0.708, read-out: LUCIFERASE INFECTION ASSAY - IC50): 4 µM
CCCCN(CC(=O)N1CCCC(c2nc3ccccc3s2)C1)Cc1nc(=O)c2ccccc2[nH]1 (stereo not given)	> 10 µM	IC50 (PBLUC_HILL_SLOPE 3.32, PBLUC_R_SQUARED 0.747, read-out: LUCIFERASE INFECTION ASSAY - IC50): 6.35 µM
CN1/C(=C\C=N\NC(=O)c2cccs2)C(C)(C)c2ccccc21	8.4 µM	IC50 (PBLUC_HILL_SLOPE 3.23, PBLUC_R_SQUARED 0.426, read-out: LUCIFERASE INFECTION ASSAY - IC50): 4.25 µM
Fc1ccc(NC(=S)NC2CC3CC2C2C=CCC32)cc1 (stereo not given)	8.13 µM	IC50 (PBLUC_HILL_SLOPE 3.22, PBLUC_R_SQUARED 0.522, read-out: LUCIFERASE INFECTION ASSAY - IC50): 4.11 µM
O=C(/C=C/c1ccc(Cl)c(Cl)c1)NNC(=O)C1COc2ccccc2O1 (stereo not given)	9.08 µM	IC50 (PBLUC_HILL_SLOPE 3.24, PBLUC_R_SQUARED 0.588, read-out: LUCIFERASE INFECTION ASSAY - IC50): 4.61 µM
CCCCN=C1NN=C(C23CC4CC(CC(C4)C2)C3)C(C)S1 (stereo not given)	8.93 µM	IC50 (PBLUC_HILL_SLOPE 3.27, PBLUC_R_SQUARED 0.411, read-out: LUCIFERASE INFECTION ASSAY - IC50): 4.56 µM
CC1(C)C2CC=C(/C=N/NC(=O)Cn3c(C(F)(F)F)nc4ccccc43)C1C2 (stereo not given)	> 10 µM	IC50 (PBLUC_HILL_SLOPE 3.28, PBLUC_R_SQUARED 0.493, read-out: LUCIFERASE INFECTION ASSAY - IC50): 6.15 µM
Cc1ccccc1/N=c1\scc(-c2ccc(Cl)cc2Cl)n1C(C)CCC(C)C (stereo not given)	9.57 µM	IC50 (PBLUC_HILL_SLOPE 3.23, PBLUC_R_SQUARED 0.321, read-out: LUCIFERASE INFECTION ASSAY - IC50): 4.85 µM
CNc1nc(-c2cccnc2)nc2sc(-c3ccccc3)cc12	> 10 µM	IC50 (PBLUC_HILL_SLOPE 3.26, PBLUC_R_SQUARED 0.654, read-out: LUCIFERASE INFECTION ASSAY - IC50): 6.22 µM
N#Cc1ccccc1COc1ccccc1-c1ccccc1	> 10 µM	IC50 (PBLUC_HILL_SLOPE 3.31, PBLUC_R_SQUARED 0.0977, read-out: LUCIFERASE INFECTION ASSAY - IC50): 7.89 µM
CN(C)CCNC(=O)c1ccc(-c2cn3c(-c4ccc5c(ccn5C)c4)cnc3cn2)cc1	> 7.53 µM	IC50 (PBLUC_HILL_SLOPE 3.24, PBLUC_R_SQUARED 0.242, read-out: LUCIFERASE INFECTION ASSAY - IC50): > 7.53 µM
C=CCN(C(=O)c1cccc(C)c1[N+](=O)[O-])c1nc2c(s1)CCCC2	> 10 µM	IC50 (PBLUC_HILL_SLOPE 3.27, PBLUC_R_SQUARED 0.266, read-out: LUCIFERASE INFECTION ASSAY - IC50): 9.32 µM
